Data published in patent US10583119B2, “Compounds, compositions and methods for making the same” (Signum Biosciences, Inc., priority 2008, dated 2020).
“Also recorded” adds a separate entry of the source.

Tests used:
[1] = system: Swiss-Webster (wild-type) mice; assay: Glucose metabolism (intraperitoneal glucose tolerance test, body weight) in wild-type mice; format: in vivo; settings: 0.1% in diet for 128 days
Description: The glucose tolerance test (GTT) measures the body's ability to metabolize glucose. It is currently used to diagnose patients with prediabetes disposition and diabetes.
Twenty (20) Swiss-Webster (wild-type) mice were acclimated for 2 weeks. The mice were ear notched for identification and housed in individually and negatively ventilated polycarbonate cages with HEPA filtered air at a density of 6 mice per cage. Bed-o-cob corn cob bedding was used and cages were changed every two weeks. The animal room was lighted entirely with artificial fluorescent lighting, with a controlled 12 h light/dark cycle (7 am to 7 pm light). The normal temperature and relative humidity ranged in the animal rooms are 22±4° C. and 50±15%, respectively. The animal rooms were set to have 15 air exchanges per hour. Filtered tap water, acidified to a pH of 2.8 to 3.2. LabDiet D10001 was provided ad libitum, and leftover food was removed once per week.
Following acclimation, mice are assigned to groups according to diet. • 1. Control Diet (D10001) • 2. Compound I-63 ((D10001 with 0.1% 1-63)
The mice were maintained on the diet for 128 days. […] Mice were weighed and glucose dose calculated for […] body weight. […] Blood glucose levels were measured with the OneTouch UltraSmart electronic glucometer at time point O with tail vein blood. […] Blood glucose was measured at 15, 30, 45, 90 and 120 minutes after glucose injection.

[2] = molecular target: T1, protein phosphatase 2A specific methyltransferase (MTase) (Homo sapiens, UniProt Q9UIC8); assay: PP2A methylation in 96-well plate format (methyltransferase activity); format: biochemical; settings: purified PP2A, MTase and [3H]-SAM; read-out: MT (IC50)
T1 construct: His; made in house
T1 sequence (Q9UIC8 whole entry): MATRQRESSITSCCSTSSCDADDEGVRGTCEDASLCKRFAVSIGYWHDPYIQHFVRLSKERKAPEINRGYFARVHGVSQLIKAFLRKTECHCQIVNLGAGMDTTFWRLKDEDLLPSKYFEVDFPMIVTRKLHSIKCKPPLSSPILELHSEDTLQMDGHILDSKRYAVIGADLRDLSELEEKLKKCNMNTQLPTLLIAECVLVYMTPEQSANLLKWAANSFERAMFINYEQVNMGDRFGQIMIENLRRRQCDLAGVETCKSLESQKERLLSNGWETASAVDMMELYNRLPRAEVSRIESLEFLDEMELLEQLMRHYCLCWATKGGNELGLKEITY
Description: Purified PP2A, MTase and [^3H]-SAM, were incubated in reaction buffer at 37° C. At the end of the reaction, mixture was added onto the membranes of 96-well filter plate (Multiscreen™, Millipore). The membranes were then pre-wetted with 70% ethanol (50 μL/well) and then subsequently washed with water (2×200 μL/well). The reaction in each well was terminated and the proteins (5 μL-20 μL) were precipitated by adding 25% ice-cold TCA. The plate was kept on ice for 30 minutes to ensure completion of protein precipitation. Excess of the free SAM was then removed by washing with 5% cold TCA ([…]) and 70% cold ethanol (2×100 μL/well). Membranes were air-dried, radioactivity in each well was counted by TopCount^NXT scintillation counter (Packard) with 25 μL/well of Microsinct™ 20 (PerkinElmer).

[3] = system: phosphorylated Tau; assay: Phosphorylated tau in vivo at four weeks (pS396 Western blot of brain); design: species or system mice; settings: 0.1% in chow, phospho-Serine 396
Description: Swiss Webster mice (9-12 weeks old) were fed ad libitum, either standard rodent chow (Control), or rodent chow formulated with 0.1 g Compound I-63 per 100 g chow (0.1% Compound I-63) or 0.1 g Compound I-62 per 100 g chow (0.1% Compound I-62); water was changed weekly. Mice were housed at 23° C., on a 12 hour light and dark cycle, with 6 mice per cage. At 4 weeks, six mice from the Control, 0.1% Compound I-63 and 0.1% Compound I-62 groups were sacrificed by cervical dislocation, brains removed, snap-frozen in liquid nitrogen, and stored at −80° C. Brains were homogenized in 350 pi of buffer containing 20 mM MOPS-Na, pH 7.2, 1 mM EDTA/DTT, 0.5 mg/L of aprotinin, leupeptin and pepstatin, 100 nM okadaic acid, and clarified by centrifugation (14000 rpm, 10 min, 4° C.). Supernatant protein concentrations were measured by the Bradford method, 4 volumes of the supernatant and 1 volume of 5×SDS sample buffer were mixed and boiled for 2 minutes. Boiled homogenate ([…]) were loaded on 12% polyacrylamide gels, and transferred to nitrocellulose membranes. […] Protein bands were detected with the ECL Plus reagent (GE Healthcare) and blots scanned on a Molecular Dynamics Storm Imager. […]

For `CCCCCCCCCCCCCCCCCCCC(=O)NCCc1c[nH]c2ccc(O)cc12` [Compound I-63, N-(2-(5-hydroxy-1H-indol-3-yl)ethyl)icosanamide], the “glucose tolerance in intraperitoneal glucose tolerance test” value [1] was “consistently lower glucose levels; also recorded: improved glucose tolerance”, the “incremental area under the curve of blood glucose levels in the glucose tolerance test compared to control diet” value [1] was under 10% and the IC50 [2] was 10 to 100 µM. The “lowering of phosphorylated tau levels in the brain compared to control” value [3] was 40%.
